According to US12492173B2, “Herbicidal substituted N-tetrazolyl aryl carboxamides” (Bayer Aktiengesellschaft, priority 2019, dated 2025):

Tests used:
Assay type in all cases: in vivo
Setaria viridis = assay: Post-emergence herbicidal action, SETVI; set-up: key: % herbicidal action vs untreated; 100 = plants died, 0 = like control; conditions: for Herbicidal action against SETVI: comparative experiment, 5 g of a.i./ha
Summary of the method: (§1)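 Greenhouse post-emergence test: weeds sown in sandy loam were sprayed once at one leaf, 2 to 3 weeks from sowing, with aqueous WP or EC preparations carrying 0.2% wetting agent. Effect is scored visually after about 3 weeks.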

Alopecurus myosuroides = assay: Post-emergence herbicidal action, ALOMY; set-up: key: % herbicidal action vs untreated; 100 = plants died, 0 = like control
Summary of the method: as §1

Stellaria media = assay: Pre-emergence herbicidal action, STEME; set-up: key to Herbicidal action against STEME: % activity: 100 = plants have died, 0 = like control plants; conditions: for herbicidal activity STEME: dosage 320 g/ha, scored visually after 3 weeks vs untreated controls (100% = plants have died)
Summary of the method: (§2)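 Percent damage, assessed visually after 3 weeks and referenced to untreated controls, reflects a pre-emergence treatment. Spray liquid equated to 600 to 800 l/ha with 0.2% wetting agent, applied to the covering soil over seeds in sandy loam.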

Abutilon theophrasti = assay: Pre-emergence herbicidal action, ABUTH; set-up: key to Herbicidal action against ABUTH: % activity: 100 = plants have died, 0 = like control plants; conditions: for herbicidal activity ABUTH: dosage 320 g/ha, scored visually after 3 weeks vs untreated controls (100% = plants have died)
Summary of the method: as §2

Amaranthus retroflexus = assay: Pre-emergence herbicidal action, AMARE; conditions: dosage 320 g/ha, scored visually after 3 weeks vs untreated controls (100% = plants have died)
Summary of the method: as §2

Pharbitis purpurea = assay: Pre-emergence herbicidal action, PHBPU; conditions: dosage 320 g/ha, scored visually after 3 weeks vs untreated controls (100% = plants have died)
Summary of the method: as §2

[1] = comparative experiment, 20 g of a.i./ha

| SMILES | herbicidal action SETVI (Setaria viridis; post-emergence, dosage 80 g/ha) [%] | herbicidal action ALOMY (Alopecurus myosuroides; post-emergence, dosage 80 g/ha) [%] | herbicidal activity STEME (Stellaria media) [%] | herbicidal activity ABUTH (Abutilon theophrasti) [%] | herbicidal activity AMARE (Amaranthus retroflexus) [%] | herbicidal activity PHBPU (Pharbitis purpurea) [%] | herbicidal action SETVI (Setaria viridis; Dosage 80 g/ha) | herbicidal action ALOMY (Alopecurus myosuroides; Dosage 80 g/ha) | Herbicidal action against SETVI (Setaria viridis; post-emergence) | Herbicidal action against STEME (Stellaria media; [1]) | Herbicidal action against ABUTH (Abutilon theophrasti; [1]) |
| --- | --- | --- | --- | --- | --- | --- | --- | --- | --- | --- | --- |
| Cn1nnnc1NC(=O)c1ccc(C(F)(F)F)c(CS(=O)(=O)C2CC2)c1Cl [Example 1-304] | 90 | 100 | 100 | 100 | 100 | 100 | – | – | – | – | – |
| COCCSCc1c(C(F)(F)F)ccc(C(=O)Nc2nnnn2C)c1Cl [Example 1-305] | 100 | 100 | 100 | 100 | 100 | 90 | – | – | – | – | – |
| Cn1nnnc1NC(=O)c1ccc(C(F)(F)F)c(CSCC(F)(F)F)c1Cl [Example 1-311] | – | – | 100 | 100 | 100 | 100 | 100 | 100 | – | – | – |
| Cn1nnnc1NC(=O)c1ccc(C(F)(F)F)c(CSCC2CC2)c1Cl [Example 1-314] | 100 | 100 | 90 | 100 | 100 | 90 | – | – | – | – | – |
| Cn1nnnc1NC(=O)c1ccc(C(F)(F)F)c(CS(=O)(=O)CC2CC2)c1Cl [Example 1-316] | – | – | 100 | 100 | 100 | 90 | 90 | 90 | – | – | – |
| CSCc1c(C(F)F)ccc(C(=O)Nc2nnnn2C)c1Cl [Example 1-320] | – | – | 90 | 100 | 90 | 80 | 100 | 100 | 100 | 90 | 90 |
| Cn1nnnc1NC(=O)c1ccc(C(F)F)c(CS(C)(=O)=O)c1Cl [Example 1-322] | 100 | 90 | 100 | 100 | 100 | 100 | – | – | – | – | – |
| CCSCc1c(C(F)F)ccc(C(=O)Nc2nnnn2C)c1Cl [Example 1-323] | 100 | 90 | 100 | 100 | 100 | 100 | – | – | 100 | – | – |
| Cn1nnnc1NC(=O)c1ccc(C(F)(F)F)c(CS(C)(=O)=O)c1C(F)(F)C(F)(F)F [Example 1-552] | – | – | 100 | 100 | 100 | 90 | 80 | – | – | – | – |
| CCn1nnnc1NC(=O)c1ccc(C(F)F)c(C[S+](C)[O-])c1SC (stereo not shown) [Example 2-171] | – | – | 100 | 100 | 100 | 90 | 90 | – | – | – | – |
| CCn1nnnc1NC(=O)c1ccc(C(F)(F)F)c(C[S+]([O-])CC2CC2)c1Cl (stereo not shown) [Example 2-315] | – | – | 100 | 100 | 100 | 90 | 100 | – | – | – | – |
| CCCn1nnnc1NC(=O)c1ccc(C(F)(F)F)c(CS(C)(=O)=O)c1Cl [Example 3-298] | – | – | 90 | 100 | 100 | 90 | 80 | – | – | – | – |
| CCCn1nnnc1NC(=O)c1ccc(C(F)F)c(CS(C)(=O)=O)c1Cl [Example 3-322] | – | – | 100 | 100 | 100 | 90 | 80 | – | – | – | – |
| CCCn1nnnc1NC(=O)c1ccc(C(F)F)c(CS(=O)(=O)CC)c1Cl [Example 3-325] | – | – | 100 | 100 | 100 | 100 | 100 | – | – | – | – |
